Measurements as given in patent publication US12180146B2, “Antihypertensive polyol compound and derivative thereof” (TAO PHARMACEUTICAL (SUZHOU) CO., LTD, priority 2020, dated 2024).

System: spontaneously hypertensive rats (SHR)
Assay: Antihypertensive activity test: blood pressure and heart rate of spontaneously hypertensive rats (SHR)
Format: in vivo, rat
Details: 200 mg/kg
Experimental: Tested Drugs: Compounds of the Invention. The dosage of all compound was uniformly set to 200 mg/kg.
In the test, changes in the blood pressure before and after the administration were detected, and compared with the basic value, a reduction of SBP ≥20 mmHg after administration was judged as effective antihypertensive effects; and at the same time, changes in the heart rate before and after the administration were detected.
Heart rate was expressed as mean±standard deviation (x±s). The changes of heart rate before and after the administration were compared by using Two-sample equal variance paired t test, and P<0.05 was regarded as the standard of statistically significant difference.

[1] = after administration (6 h M ± SD), n = 8
[2] = before administration, M ± SD, n = 8

Compound | SBP Difference before and after administration, 1 h (1 h) [mmHg] | SHR blood pressure (SBP), time after administration 1 h (1 h, n = 8) [mmHg] | SBP Difference before and after administration, 2 h (2 h) [mmHg] | SHR blood pressure (SBP), time after administration 2 h (2 h, n = 8) [mmHg] | SBP Difference before and after administration, 3 h (3 h) [mmHg] | SHR blood pressure (SBP), time after administration 3 h (3 h, n = 8) [mmHg] | SBP Difference before and after administration, 4 h (4 h) [mmHg] | SHR blood pressure (SBP), time after administration 4 h (4 h, n = 8) [mmHg] | SBP Difference before and after administration, 5 h (5 h) [mmHg] | SHR blood pressure (SBP), time after administration 5 h (5 h, n = 8) [mmHg] | SBP Difference before and after administration, 6 h (6 h) [mmHg] | SHR blood pressure (SBP), time after administration 6 h (6 h, n = 8) [mmHg] | also measured
CCc1cccc([C@@H](O)CO)c1 [Compound 1-1] | 14 | 176 ± 12.4 | 22 | 168 ± 12.0 | 29 | 161 ± 13.1 | 24 | 166 ± 11.4 | 20 | 170 ± 11.9 | 14 | 186 ± 10.1 | SBP Difference before and after administration, 0 h (0 h): 0 mmHg
CCc1cccc([C@H](O)CO)c1 [Compound 1-2] | 10 | 176 ± 6.39 | 22 | 164 ± 4.50 | 25 | 161 ± 9.15 | 23 | 163 ± 13.7 | 12 | 174 ± 15.9 | 8 | 178 ± 8.78 | –
[2H]OCC(O[2H])c1cccc(CC)c1 (centres unmarked) [Compound 1-3] | 18 | 168 ± 6.39 | 21 | 165 ± 4.50 | 23 | 163 ± 9.15 | 23 | 163 ± 13.7 | 22 | 164 ± 15.9 | 18 | 168 ± 8.78 | –
OCC(O)c1ccccc1 (centres unmarked) [Compound 2] | 16 | 169 ± 6.39 | 18 | 167 ± 4.50 | 19 | 166 ± 9.15 | 19 | 166 ± 13.7 | 20 | 165 ± 15.3 | 15 | 170 ± 8.77 | –
Cc1cccc(C(O)CO)c1 (centres unmarked) [Compound 3] | 18 | 180 ± 11.6 | 10 | 178 ± 10.9 | 11 | 177 ± 13.9 | 8 | 180 ± 15.80 | 2 | 186 ± 16.0 | 2 | 186 ± 17.7 | –
CCc1ccc(C(O)CO)cc1 (centres unmarked) [Compound 4] | 3 | 182 ± 11.6 | 7 | 178 ± 10.8 | 8 | 177 ± 10.9 | 5 | 180 ± 15.80 | 1 | 184 ± 16.0 | −1 | 186 ± 17.7 | SHR heart rate, time after administration 0 h (0 h, N = 8): 345 ± 42.2 beat/min; Heart rate Difference before and after administration, 1 h (1 h): 2 beat/min; SHR heart rate, time after administration 1 h (1 h, N = 8): 347 ± 42.6 beat/min; Heart rate Difference before and after administration, 2 h (2 h): 4 beat/min; SHR heart rate, time after administration 2 h (2 h, N = 8): 349 ± 49.7 beat/min; Heart rate Difference before and after administration, 3 h (3 h): 4 beat/min; SHR heart rate, time after administration 3 h (3 h, N = 8): 349 ± 48.3 beat/min; Heart rate Difference before and after administration, 4 h (4 h): 0 beat/min; SHR heart rate, time after administration 4 h (4 h, N = 8): 345 ± 45.1 beat/min; Heart rate Difference before and after administration, 5 h (5 h): −6 beat/min; SHR heart rate, time after administration 5 h (5 h, N = 8): 338 ± 39.7 beat/min; Heart rate Difference before and after administration, 6 h (6 h): −4 beat/min; SHR heart rate, time after administration 6 h (6 h, N = 8): 341 ± 46.9 beat/min; Blood pressure (SBP, mmHg) After administration [1]: 181 ± 13.2 mmHg; Heart rate (beat/min) After administration [1]: 346 ± 43.4 beat/min; Heart rate Difference (beat/min) (after administration minus baseline (6 h)): 1 beat/min; Blood pressure Difference mmHg (baseline minus after administration (6 h)): 3 mmHg; Blood pressure (SBP, mmHg) Baseline [2]: 184 ± 14.7 mmHg; Heart rate (beat/min) Baseline [2]: 345 ± 42.2 beat/min
OCC(O)c1cccc(Br)c1 (centres unmarked) [Compound 6] | 5 | 184 ± 10.9 | 9 | 180 ± 12.4 | 9 | 180 ± 7.80 | 6 | 183 ± 6.56 | 7 | 182 ± 8.29 | 1 | 188 ± 13.2 | –
CC(C)c1cccc(C(O)CO)c1 (centres unmarked) [Compound 9] | 2 | 192 ± 11.6 | 6 | 188 ± 12.1 | 17 | 177 ± 12.3 | 14 | 180 ± 12.85 | 10 | 184 ± 16.0 | 8 | 186 ± 17.8 | –
CC(=O)c1ccc(C(O)CO)cc1 (centres unmarked) [Compound 10] | 6 | 186 ± 9.54 | 10 | 182 ± 7.36 | 13 | 179 ± 4.07 | 9 | 183 ± 7.65 | 7 | 185 ± 5.64 | 2 | 190 ± 6.54 | –
